Laboratory results: the NIST ThermoML archive (doi:10.1016/j.jct.2010.07.002)

Experiments:
[1] = 101.33 kPa, Liquid, Vibrating tube method
[2] = isobaric coefficient of expansion; conditions: 101.33 kPa, Liquid, Vibrating tube densimeter
[3] = xn = mol fraction of the nth substance listed; conditions: 101.3 kPa, Liquid, Vibrating tube method

C[N+](=O)[O-] [nitromethane]
Conditions	isobaric coefficient of expansion, 278.15 K	isobaric coefficient of expansion, 288.15 K	isobaric coefficient of expansion, 298.15 K	isobaric coefficient of expansion, 308.15 K	isobaric coefficient of expansion, 318.15 K	mass density, 278.15 K [kg/m3]	mass density, 288.15 K [kg/m3]	mass density, 298.15 K [kg/m3]	mass density, 308.15 K [kg/m3]	mass density, 318.15 K [kg/m3]
[1]	–	–	–	–	–	1158.25	1144.75	1131.18	1117.53	1103.79
[2]	0.00116 1/K	0.00118 1/K	0.0012 1/K	0.00122 1/K	0.00125 1/K	–	–	–	–	–

C[N+](=O)[O-] [nitromethane] + O
mass density [kg/m3], [3]
Conditions	278.15 K	288.15 K	298.15 K	308.15 K	318.15 K
x2 = 0.001777	1158.13	1144.64	1131.07	1117.42	1103.68
x2 = 0.002859	1158.06	1144.56	1130.99	1117.35	1103.61
x2 = 0.004913	1157.94	1144.44	1130.87	1117.22	1103.48
x2 = 0.00632	1157.85	1144.35	1130.78	1117.13	1103.39
x2 = 0.008036	1157.74	1144.24	1130.67	1117.02	1103.29
x2 = 0.009712	1157.64	1144.14	1130.57	1116.92	1103.18
x2 = 0.01188	1157.5	1144	1130.43	1116.79	1103.06
x2 = 0.01446	1157.34	1143.85	1130.28	1116.63	1102.9
x2 = 0.01696	1157.19	1143.7	1130.13	1116.49	1102.75
x2 = 0.02033	1156.99	1143.5	1129.93	1116.29	1102.56
x2 = 0.02492	1156.72	1143.23	1129.66	1116.02	1102.3
x2 = 0.02911	1156.49	1143	1129.43	1115.79	1102.07

[2H]O[2H] [water-d2] + C[N+](=O)[O-]
mass density [kg/m3], [3]
Conditions	278.15 K	288.15 K	298.15 K	308.15 K	318.15 K
x1 = 0.001672	1158.21	1144.71	1131.14	1117.49	1103.75
x1 = 0.002547	1158.18	1144.68	1131.11	1117.46	1103.73
x1 = 0.004545	1158.14	1144.64	1131.07	1117.42	1103.67
x1 = 0.00623	1158.09	1144.59	1131.02	1117.37	1103.63
x1 = 0.008336	1158.04	1144.54	1130.97	1117.32	1103.58
x1 = 0.009484	1158.01	1144.51	1130.94	1117.3	1103.56
x1 = 0.01177	1157.96	1144.46	1130.89	1117.24	1103.5
x1 = 0.01408	1157.9	1144.4	1130.83	1117.19	1103.45
x1 = 0.01703	1157.83	1144.34	1130.77	1117.12	1103.38
x1 = 0.02007	1157.77	1144.27	1130.7	1117.06	1103.32
x1 = 0.02274	1157.71	1144.21	1130.64	1117	1103.26
x1 = 0.02464	1157.67	1144.17	1130.6	1116.97	1103.22
x1 = 0.02688	1157.62	1144.12	1130.55	1116.92	1103.17
